In paper PMC5761851, “Application of a phenotypic drug discovery strategy to identify biological and chemical starting points for inhibition of TSLP production in lung epithelial cells” (PLoS ONE, 2018):
Values joined by “and” are separate entries in the source; they are usually repeats but may differ in a detail not shown here. Equal values may be shown once. Read-outs that look alike come from different tables or passages of the source.

Legend:
CCK1 (CCKA) = target: T1, CCK1 (CCKA) (Homo sapiens, UniProt P32238); assay: BioPrint panel: CCK1 (CCKA) (h) (agonist); format: binding; conditions: 1 micromolar, read-out: percentage of inhibition of activity
T1 construct: purchased Eurofins Pharma Discovery Services (KinaseProfiler; Cerep BioPrint panel)
Text: (§1) Supplement pone.0189247.s004.xlsx, sheet "Bioprint Selectivity Panel" | column: %

CysLT1 (LTD4) = target: T2, CysLT1 (LTD4) (Homo sapiens, UniProt Q9Y271); assay: BioPrint panel: CysLT1 (LTD4) (h) (agonist); format: binding; conditions: 1 micromolar, read-out: percentage of inhibition of activity
T2 construct: purchased Eurofins Pharma Discovery Services (KinaseProfiler; Cerep BioPrint panel)
Text: as §1

[1] = system: Ca2+ channel (L, verapamil site); assay: BioPrint panel: Ca2+ channel (L, verapamil site) (antagonist); format: binding; conditions: 1 micromolar
Text: as §1

MAO-A = target: T3, MAO-A (Rattus norvegicus, UniProt P21396); assay: BioPrint panel: MAO-A (antagonist); format: binding; conditions: 1 micromolar, read-out: percentage of inhibition of activity
T3 construct: purchased Eurofins Pharma Discovery Services (KinaseProfiler; Cerep BioPrint panel)
Text: as §1

PDE2A1 = PDE2A1 (Homo sapiens, UniProt O00408); assay: BioPrint panel: PDE2A1 (h); format: biochemical; conditions: 1 micromolar, read-out: percentage of inhibition of activity
Text: as §1

Syk = Syk (Homo sapiens, UniProt P43405); assay: Enzymatic Syk kinase activity assay; format: biochemical
[2] = system: 104 binding assays and 41 cell based and enzyme assays; assay: BioPrint general selectivity panel; conditions: 1 μM
Method: (§2) General selectivity profiling was performed at Eurofins Pharma Discovery Services using the BioPrint® panel and reference database. The panel included 104 binding assays (non-peptide, peptide and nuclear receptors, ion channels and amine transporters) and 41 cell based and enzyme assays (including 10 kinases, 9 proteases and 5 phosphodiesterases) (S4 Table). More than 70% were human targets. Compound 4 was tested at a concentration of 1 μM in duplicate (10 μM for P-gp and CYP enzymes). The resulting bioactivity fingerprint was compared with a database of >2,500 BioPrint marketed drugs and reference compounds. IC50 values for selected activities were further characterized at 8 concentrations in duplicate.

A3 = target: T4, A3 (Homo sapiens, UniProt P0DMS8); assay: BioPrint panel: A3 (h) (agonist); format: binding; conditions: 1 micromolar, read-out: percentage of inhibition of activity
T4 construct: purchased Eurofins Pharma Discovery Services (KinaseProfiler; Cerep BioPrint panel)
Text: as §1

alpha 2B = target: T5, alpha 2B (Homo sapiens, UniProt P18089); assay: BioPrint panel: alpha 2B (h) (antagonist); format: binding; conditions: 1 micromolar, read-out: percentage of inhibition of activity
T5 construct: purchased Eurofins Pharma Discovery Services (KinaseProfiler; Cerep BioPrint panel)
Text: as §1

MCH1 = target: T6, MCH1 (Homo sapiens, UniProt Q99705); assay: BioPrint panel: MCH1 (h) (agonist); format: binding; conditions: 1 micromolar, read-out: percentage of inhibition of activity
T6 construct: purchased Eurofins Pharma Discovery Services (KinaseProfiler; Cerep BioPrint panel)
Text: as §1

5-HT6 = target: T7, 5-HT6 (Homo sapiens, UniProt P50406); assay: BioPrint panel: 5-HT6 (h) (agonist); format: binding; conditions: 1 micromolar, read-out: percentage of inhibition of activity
T7 construct: purchased Eurofins Pharma Discovery Services (KinaseProfiler; Cerep BioPrint panel)
Text: as §1

CaMK2alpha = target: T8, CaMK2alpha (Homo sapiens, UniProt Q9UQM7); assay: BioPrint panel: CaMK2alpha (h); format: biochemical; conditions: 1 micromolar, read-out: percentage of inhibition of activity
T8 construct: purchased Eurofins Pharma Discovery Services (KinaseProfiler; Cerep BioPrint panel)
Text: as §1

Fyn = target: T9, Fyn (Homo sapiens, UniProt P06241); assay: BioPrint panel: Fyn kinase (h); format: biochemical; conditions: 1 micromolar, read-out: percentage of inhibition of activity
T9 construct: purchased Eurofins Pharma Discovery Services (KinaseProfiler; Cerep BioPrint panel)
Text: as §1

A1 = target: T10, A1 (Homo sapiens, UniProt P30542); assay: BioPrint panel: A1 (h) (agonist); format: binding; conditions: 1 micromolar, read-out: percentage of inhibition of activity
T10 construct: purchased Eurofins Pharma Discovery Services (KinaseProfiler; Cerep BioPrint panel)
Text: as §1

MT3 (QR2) = target: T11, MT3 (QR2) (Mesocricetus auratus, UniProt A0ABM2YAB8); assay: BioPrint panel: MT3; format: binding
T11 construct: Eurofins Pharma Discovery Services (contract assay service)
T11 sequence (A0ABM2YAB8 1-231): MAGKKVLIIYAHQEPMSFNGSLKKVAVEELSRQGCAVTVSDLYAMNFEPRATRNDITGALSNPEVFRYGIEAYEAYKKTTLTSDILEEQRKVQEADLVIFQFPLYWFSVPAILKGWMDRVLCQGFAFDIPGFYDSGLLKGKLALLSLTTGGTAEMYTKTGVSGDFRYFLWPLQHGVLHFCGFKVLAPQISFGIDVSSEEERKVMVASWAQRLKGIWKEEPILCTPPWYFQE
Method: as §2

M4 = target: T12, M4 (Homo sapiens, UniProt P08173); assay: BioPrint panel: M4 (h) (antagonist); format: binding; conditions: 1 micromolar, read-out: percentage of inhibition of activity
T12 construct: purchased Eurofins Pharma Discovery Services (KinaseProfiler; Cerep BioPrint panel)
Text: as §1

kainate = assay: BioPrint panel: kainate (agonist); format: binding; conditions: 1 micromolar
Text: as §1

p38alpha kinase = target: T13, p38alpha kinase (Homo sapiens, UniProt Q16539); assay: BioPrint panel: p38alpha kinase (h); format: biochemical; conditions: 1 micromolar, read-out: percentage of inhibition of activity
T13 construct: purchased Eurofins Pharma Discovery Services (KinaseProfiler; Cerep BioPrint panel)
Text: as §1

BB3 = target: T14, BB3 (Homo sapiens, UniProt P32247); assay: BioPrint panel: BB3 (h) (agonist); format: binding; conditions: 1 micromolar, read-out: percentage of inhibition of activity
T14 construct: purchased Eurofins Pharma Discovery Services (KinaseProfiler; Cerep BioPrint panel)
Text: as §1

PDE3B = target: T15, PDE3B (Homo sapiens, UniProt Q13370); assay: BioPrint panel: PDE3B (h); format: biochemical; conditions: 1 micromolar, read-out: percentage of inhibition of activity
T15 construct: purchased Eurofins Pharma Discovery Services (KinaseProfiler; Cerep BioPrint panel)
Text: as §1

I1 = assay: BioPrint panel: I1 (agonist); format: binding; conditions: 1 micromolar
Text: as §1

AT2 = target: T16, AT2 (Homo sapiens, UniProt P50052); assay: BioPrint panel: AT2 (h) (agonist); format: binding; conditions: 1 micromolar, read-out: percentage of inhibition of activity
T16 construct: purchased Eurofins Pharma Discovery Services (KinaseProfiler; Cerep BioPrint panel)
Text: as §1

BZD (central) = assay: BioPrint panel: BZD (central) (agonist); format: binding; conditions: 1 micromolar
Text: as §1

APJ (apelin) = target: T17, APJ (apelin) (Homo sapiens, UniProt P35414); assay: BioPrint panel: APJ (apelin) (h) (agonist); format: binding; conditions: 1 micromolar, read-out: percentage of inhibition of activity
T17 construct: purchased Eurofins Pharma Discovery Services (KinaseProfiler; Cerep BioPrint panel)
Text: as §1

5-HT2B = target: T18, 5-HT2B (Homo sapiens, UniProt P41595); assay: BioPrint panel: 5-HT2B (h) (agonist); format: binding; conditions: 1 micromolar, read-out: percentage of inhibition of activity
T18 construct: purchased Eurofins Pharma Discovery Services (KinaseProfiler; Cerep BioPrint panel)
Text: as §1

CB1 = target: T19, CB1 (Homo sapiens, UniProt P21554); assay: BioPrint panel: CB1 (h) (agonist); format: binding; conditions: 1 micromolar, read-out: percentage of inhibition of activity
T19 construct: purchased Eurofins Pharma Discovery Services (KinaseProfiler; Cerep BioPrint panel)
Text: as §1

5-HT transporter = target: T20, 5-HT transporter (Homo sapiens, UniProt P31645); assay: BioPrint panel: 5-HT transporter (h) (antagonist); format: binding; conditions: 1 micromolar, read-out: percentage of inhibition of activity
T20 construct: purchased Eurofins Pharma Discovery Services (KinaseProfiler; Cerep BioPrint panel)
Text: as §1

Lyn A kinase = target: T21, Lyn A kinase (Homo sapiens, UniProt P07948); assay: BioPrint panel: Lyn A kinase (h); format: biochemical; conditions: 1 micromolar, read-out: percentage of inhibition of activity
T21 construct: purchased Eurofins Pharma Discovery Services (KinaseProfiler; Cerep BioPrint panel)
Text: as §1

GABAB(1b) = target: T22, GABAB(1b) (Homo sapiens, UniProt Q9UBS5); assay: BioPrint panel: GABAB(1b) (h) (antagonist); format: binding; conditions: 1 micromolar, read-out: percentage of inhibition of activity
T22 construct: purchased Eurofins Pharma Discovery Services (KinaseProfiler; Cerep BioPrint panel)
Text: as §1

mu (MOP) = target: T23, mu (MOP) (Homo sapiens, UniProt P35372); assay: BioPrint panel: mu (MOP) (h) (agonist); format: binding; conditions: 1 micromolar, read-out: percentage of inhibition of activity
T23 construct: purchased Eurofins Pharma Discovery Services (KinaseProfiler; Cerep BioPrint panel)
Text: as §1

N muscle-type = assay: BioPrint panel: N muscle-type (h) (antagonist); format: binding, human; conditions: 1 micromolar
Text: as §1

[3] = system: Ca2+ channel (L, diltiazem site); assay: BioPrint panel: Ca2+ channel (L, diltiazem site)(antagonist); format: binding; conditions: 1 micromolar
Text: as §1

BACE-1 (beta -secretase) = target: T24, BACE-1 (beta -secretase) (Homo sapiens, UniProt P56817); assay: BioPrint panel: BACE-1 (h) (beta -secretase); format: biochemical; conditions: 1 micromolar, read-out: percentage of inhibition of activity
T24 construct: purchased Eurofins Pharma Discovery Services (KinaseProfiler; Cerep BioPrint panel)
Text: as §1

A2A = target: T25, A2A (Homo sapiens, UniProt P29274); assay: BioPrint panel: A2A (h) (agonist); format: binding; conditions: 1 micromolar, read-out: percentage of inhibition of activity
T25 construct: purchased Eurofins Pharma Discovery Services (KinaseProfiler; Cerep BioPrint panel)
Text: as §1

AT1 = target: T26, AT1 (Homo sapiens, UniProt P30556); assay: BioPrint panel: AT1 (h) (antagonist); format: binding; conditions: 1 micromolar, read-out: percentage of inhibition of activity
T26 construct: purchased Eurofins Pharma Discovery Services (KinaseProfiler; Cerep BioPrint panel)
Text: as §1

T18 sequence (P41595 whole entry): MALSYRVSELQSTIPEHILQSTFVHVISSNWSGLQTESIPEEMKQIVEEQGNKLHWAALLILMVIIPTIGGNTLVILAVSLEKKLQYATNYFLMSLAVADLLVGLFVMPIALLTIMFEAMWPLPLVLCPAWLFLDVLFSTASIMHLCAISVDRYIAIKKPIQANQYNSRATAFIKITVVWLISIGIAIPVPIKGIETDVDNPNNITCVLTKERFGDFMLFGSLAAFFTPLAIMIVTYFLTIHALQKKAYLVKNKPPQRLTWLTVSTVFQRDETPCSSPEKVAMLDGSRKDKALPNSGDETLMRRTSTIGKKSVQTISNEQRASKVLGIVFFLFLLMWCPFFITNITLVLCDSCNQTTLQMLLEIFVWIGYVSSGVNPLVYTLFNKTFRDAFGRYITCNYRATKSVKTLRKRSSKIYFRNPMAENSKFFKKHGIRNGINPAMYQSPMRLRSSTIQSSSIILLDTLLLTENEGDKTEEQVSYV
T24 sequence (P56817 46-501): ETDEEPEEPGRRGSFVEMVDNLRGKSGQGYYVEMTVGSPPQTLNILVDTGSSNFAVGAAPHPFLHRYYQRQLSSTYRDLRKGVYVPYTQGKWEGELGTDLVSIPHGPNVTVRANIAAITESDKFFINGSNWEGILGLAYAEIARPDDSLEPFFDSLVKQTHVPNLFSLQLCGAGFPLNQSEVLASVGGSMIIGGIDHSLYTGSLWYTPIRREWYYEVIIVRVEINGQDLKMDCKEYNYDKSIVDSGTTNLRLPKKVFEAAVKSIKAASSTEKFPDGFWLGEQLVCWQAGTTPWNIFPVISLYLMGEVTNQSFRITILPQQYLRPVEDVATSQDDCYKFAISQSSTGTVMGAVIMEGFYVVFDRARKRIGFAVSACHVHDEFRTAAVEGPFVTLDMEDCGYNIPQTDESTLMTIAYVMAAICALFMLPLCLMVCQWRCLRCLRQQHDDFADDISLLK
T13 sequence (Q16539 whole entry): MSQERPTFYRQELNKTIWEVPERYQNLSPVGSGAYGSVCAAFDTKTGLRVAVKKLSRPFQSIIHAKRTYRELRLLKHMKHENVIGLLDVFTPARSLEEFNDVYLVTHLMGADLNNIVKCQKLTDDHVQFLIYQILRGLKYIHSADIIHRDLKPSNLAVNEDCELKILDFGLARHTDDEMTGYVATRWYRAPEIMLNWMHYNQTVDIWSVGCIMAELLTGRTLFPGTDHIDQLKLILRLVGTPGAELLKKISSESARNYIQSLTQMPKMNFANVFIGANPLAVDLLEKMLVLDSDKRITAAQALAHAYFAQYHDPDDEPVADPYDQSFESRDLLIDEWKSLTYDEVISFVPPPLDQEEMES
T5 sequence (P18089 whole entry): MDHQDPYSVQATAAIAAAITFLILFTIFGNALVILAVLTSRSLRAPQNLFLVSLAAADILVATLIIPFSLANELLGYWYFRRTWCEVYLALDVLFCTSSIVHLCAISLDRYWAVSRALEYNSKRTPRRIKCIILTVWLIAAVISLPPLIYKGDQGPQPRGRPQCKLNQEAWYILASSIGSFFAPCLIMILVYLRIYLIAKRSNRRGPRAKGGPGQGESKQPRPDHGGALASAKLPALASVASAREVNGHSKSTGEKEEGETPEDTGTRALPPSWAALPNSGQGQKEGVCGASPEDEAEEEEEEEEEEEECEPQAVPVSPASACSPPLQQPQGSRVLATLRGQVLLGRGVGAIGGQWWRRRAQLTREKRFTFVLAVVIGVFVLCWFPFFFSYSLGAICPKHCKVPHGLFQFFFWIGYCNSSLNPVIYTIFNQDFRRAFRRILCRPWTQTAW
T4 sequence (P0DMS8 whole entry): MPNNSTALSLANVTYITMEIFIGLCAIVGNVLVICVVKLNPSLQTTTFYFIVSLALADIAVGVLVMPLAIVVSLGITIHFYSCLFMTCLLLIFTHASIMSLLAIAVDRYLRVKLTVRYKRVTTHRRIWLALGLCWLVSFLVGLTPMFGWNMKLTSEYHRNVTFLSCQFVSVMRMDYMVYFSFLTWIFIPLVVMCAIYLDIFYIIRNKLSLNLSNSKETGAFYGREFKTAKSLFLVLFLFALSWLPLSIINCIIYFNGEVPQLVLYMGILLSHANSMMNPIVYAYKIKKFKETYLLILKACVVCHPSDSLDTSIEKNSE
T2 sequence (Q9Y271 whole entry): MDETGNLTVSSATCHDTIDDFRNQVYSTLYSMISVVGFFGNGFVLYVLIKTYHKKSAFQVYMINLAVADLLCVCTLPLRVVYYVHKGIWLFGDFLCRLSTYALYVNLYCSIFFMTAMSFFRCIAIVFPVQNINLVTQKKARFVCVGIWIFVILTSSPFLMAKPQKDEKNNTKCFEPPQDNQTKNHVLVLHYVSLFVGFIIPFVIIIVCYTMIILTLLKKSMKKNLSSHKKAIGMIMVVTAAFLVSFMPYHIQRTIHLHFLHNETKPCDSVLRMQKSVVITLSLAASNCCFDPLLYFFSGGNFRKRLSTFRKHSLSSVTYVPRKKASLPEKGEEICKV
T22 sequence (Q9UBS5 1-844 isoform Q9UBS5-2): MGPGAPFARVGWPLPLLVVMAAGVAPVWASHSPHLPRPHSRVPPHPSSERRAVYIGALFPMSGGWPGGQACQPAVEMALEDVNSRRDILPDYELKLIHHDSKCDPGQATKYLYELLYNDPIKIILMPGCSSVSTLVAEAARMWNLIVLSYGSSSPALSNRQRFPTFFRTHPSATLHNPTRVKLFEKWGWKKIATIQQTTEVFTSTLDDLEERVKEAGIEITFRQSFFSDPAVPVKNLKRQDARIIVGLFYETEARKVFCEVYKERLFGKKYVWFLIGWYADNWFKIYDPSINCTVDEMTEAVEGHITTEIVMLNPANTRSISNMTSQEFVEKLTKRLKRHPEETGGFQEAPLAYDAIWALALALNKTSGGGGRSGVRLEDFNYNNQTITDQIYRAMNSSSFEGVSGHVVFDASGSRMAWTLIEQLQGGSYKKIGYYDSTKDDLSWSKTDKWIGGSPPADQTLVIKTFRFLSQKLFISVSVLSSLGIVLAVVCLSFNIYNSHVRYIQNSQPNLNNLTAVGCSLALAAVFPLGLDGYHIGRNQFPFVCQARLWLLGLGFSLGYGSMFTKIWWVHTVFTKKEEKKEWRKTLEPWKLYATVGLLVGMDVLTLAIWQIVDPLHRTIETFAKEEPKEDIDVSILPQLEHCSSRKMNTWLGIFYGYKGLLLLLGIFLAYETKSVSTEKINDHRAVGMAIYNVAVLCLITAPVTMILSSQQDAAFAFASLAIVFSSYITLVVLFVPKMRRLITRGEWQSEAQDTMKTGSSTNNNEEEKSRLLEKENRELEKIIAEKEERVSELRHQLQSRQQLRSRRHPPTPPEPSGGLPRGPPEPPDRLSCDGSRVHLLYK
T6 sequence (Q99705 whole entry): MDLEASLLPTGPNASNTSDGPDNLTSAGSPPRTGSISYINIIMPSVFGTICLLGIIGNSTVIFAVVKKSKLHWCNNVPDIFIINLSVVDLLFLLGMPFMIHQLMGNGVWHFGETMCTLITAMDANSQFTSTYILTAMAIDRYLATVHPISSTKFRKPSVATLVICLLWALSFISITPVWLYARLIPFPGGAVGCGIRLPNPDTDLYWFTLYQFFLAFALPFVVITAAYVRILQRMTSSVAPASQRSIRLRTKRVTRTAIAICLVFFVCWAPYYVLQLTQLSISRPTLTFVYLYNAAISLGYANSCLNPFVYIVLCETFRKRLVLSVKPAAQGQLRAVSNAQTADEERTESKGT
T23 sequence (P35372 whole entry): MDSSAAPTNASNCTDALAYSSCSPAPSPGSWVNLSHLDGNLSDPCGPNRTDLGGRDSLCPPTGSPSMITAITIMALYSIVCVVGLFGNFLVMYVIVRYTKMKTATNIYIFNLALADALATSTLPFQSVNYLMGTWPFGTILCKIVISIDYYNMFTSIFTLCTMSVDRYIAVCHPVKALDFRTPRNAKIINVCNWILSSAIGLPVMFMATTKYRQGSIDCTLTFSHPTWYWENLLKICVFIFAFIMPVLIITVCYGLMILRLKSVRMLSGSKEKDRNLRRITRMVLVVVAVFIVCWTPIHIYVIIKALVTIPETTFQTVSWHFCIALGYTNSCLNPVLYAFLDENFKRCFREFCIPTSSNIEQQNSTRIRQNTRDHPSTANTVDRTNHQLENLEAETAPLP
T20 sequence (P31645 whole entry): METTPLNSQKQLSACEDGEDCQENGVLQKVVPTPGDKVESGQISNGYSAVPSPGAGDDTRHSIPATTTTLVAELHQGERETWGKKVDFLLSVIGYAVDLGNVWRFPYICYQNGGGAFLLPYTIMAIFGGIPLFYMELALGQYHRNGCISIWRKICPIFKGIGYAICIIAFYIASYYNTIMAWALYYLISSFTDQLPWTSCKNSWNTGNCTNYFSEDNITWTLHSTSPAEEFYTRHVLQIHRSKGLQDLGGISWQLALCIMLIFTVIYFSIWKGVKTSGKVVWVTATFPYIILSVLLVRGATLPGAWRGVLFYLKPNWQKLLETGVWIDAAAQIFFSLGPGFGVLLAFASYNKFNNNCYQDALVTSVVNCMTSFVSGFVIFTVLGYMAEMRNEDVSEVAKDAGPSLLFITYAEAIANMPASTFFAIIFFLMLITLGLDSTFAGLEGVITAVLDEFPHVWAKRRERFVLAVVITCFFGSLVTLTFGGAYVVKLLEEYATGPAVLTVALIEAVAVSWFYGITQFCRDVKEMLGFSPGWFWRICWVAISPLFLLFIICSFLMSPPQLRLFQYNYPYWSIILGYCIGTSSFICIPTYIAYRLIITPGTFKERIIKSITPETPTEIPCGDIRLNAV
T10 sequence (P30542 whole entry): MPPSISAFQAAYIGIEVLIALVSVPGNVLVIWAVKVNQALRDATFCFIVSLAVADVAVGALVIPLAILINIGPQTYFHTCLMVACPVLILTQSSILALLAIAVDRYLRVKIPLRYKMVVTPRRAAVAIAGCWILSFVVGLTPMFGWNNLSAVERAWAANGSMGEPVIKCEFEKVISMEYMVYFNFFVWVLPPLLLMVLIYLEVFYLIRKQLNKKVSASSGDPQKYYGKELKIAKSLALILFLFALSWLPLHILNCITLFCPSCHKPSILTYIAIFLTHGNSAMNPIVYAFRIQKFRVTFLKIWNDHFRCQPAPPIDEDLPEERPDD

SMILES: Cn1cc(-c2cccc(-c3nc(C(=O)NC4C5CC6CC4CC(O)(C6)C5)c(N)nc3N)c2)cn1 (centres unmarked) [compound 4]
- inhibition at 1 µM (CCK1 (CCKA)): -0.1%
- inhibition at 1 µM (CysLT1 (LTD4)): 6.1%
- percentage of inhibition of activity [1]: 6.4%
- inhibition at 1 µM (MAO-A): 6.4%
- inhibition at 1 µM (PDE2A1): 6.7%
- IC50 (Syk; geometric mean, read-out: Activity in reference biochemical assay (IC50, μM) (95% CI) Syk): 11.8 µM
- IC50 (Syk; individual values, read-out: Biochemical activity (IC50, mM) (Syk)): 12.2 µM and 11.4 µM
- Inhibition of 129 additional activities [2]: less than 50%
- inhibition at 1 µM (A3): 3.5%
- inhibition at 1 µM (alpha 2B): -6.6%
- inhibition at 1 µM (MCH1): 34.6%
- inhibition at 1 µM (5-HT6): -5.3%
- inhibition at 1 µM (CaMK2alpha): -53.9%
- inhibition at 1 µM (Fyn): -9.2%
- inhibition at 1 µM (A1): -11.2%
- inhibition at 1 µM (MT3 (QR2); 1 μM, read-out: inhibition of MT3): 71%
- inhibition at 1 µM (MT3 (QR2); 1 micromolar, MT3 (ML2) (agonist), read-out: percentage of inhibition of activity): 71.9%
- IC50 (MT3 (QR2); dose response, duplicate, read-out: Inhibition of indicated activity (IC50, μM): MT3 (QR2)): 0.4 µM
- inhibition at 1 µM (M4): 0.7%
- percentage of inhibition of activity (kainate): 4.1%
- inhibition at 1 µM (p38alpha kinase): 1.5%
- inhibition at 1 µM (BB3): -3.6%
- inhibition at 1 µM (PDE3B): 5.8%
- percentage of inhibition of activity (I1): 11.5%
- inhibition at 1 µM (AT2): -8%
- percentage of inhibition of activity (BZD (central)): -11.1%
- inhibition at 1 µM (APJ (apelin)): 0.8%
- inhibition at 1 µM (5-HT2B): -7.9%
- inhibition at 1 µM (CB1): 3.7%
- inhibition at 1 µM (5-HT transporter): -8.5%
- inhibition at 1 µM (Lyn A kinase): 0.1%
- inhibition at 1 µM (GABAB(1b)): 15.4%
- inhibition at 1 µM (mu (MOP)): -2.6%
- percentage of inhibition of activity (N muscle-type): -17.1%
- percentage of inhibition of activity [3]: -22.4%
- inhibition at 1 µM (BACE-1 (beta -secretase)): -7.3%
- inhibition at 1 µM (A2A): -5.3%
- inhibition at 1 µM (AT1): -6.4%
